This series in a line: In vitro sustained-release test (dialysis bag, phosphate buffer, UV 287 nm). The series is classed as physicochemical. As to conditions: after 24 h (24h以后); phosphate buffer pH 6.86, 37±0.5 ℃, 100 r/min.

As to `CC[C@H]1OC(=O)C[C@@H](O)[C@H](C)[C@@H](O[C@@H]2O[C@H](C)[C@@H](O)[C@H](N(C)C)[C@H]2O)[C@@H](CCN2C[C@H](C)C[C@H](C)C2)C[C@@H](C)C(=O)/C=C/C(C)=C/[C@@H]1CO[C@@H]1O[C@H](C)[C@@H](O)[C@@H](OC)[C@H]1OC` [替米考星原粉, 替米考星], the release rate is on record as > 95%.

These data come from patent CN105311047A, “一种替米考星药物包合物及其制备和应用” (Luoyang Huizhong Animal Medicine Co Ltd, priority 2014, dated 2016).
